For one experiment, the target named is T1, Jak2 JH2-VF (V617F) (Homo sapiens, UniProt O60674, F794H/V617F/W777A).
T1 construct: 6xHis (N); made in house; host or cells: baculovirus-infected Sf9 cells
Nature of the experiment: mant-ATP binding to JH2-VF. The following applies: fluorescent ATP analog mant-ATP. The source says:
(§1) As a first step in characterizing the catalytic properties of Jak2 JH2, dissociation constants (Kd values) for ATP binding to JH2-WT and -VF were obtained using the fluorescent ATP analog mant-ATP.

In the next experiment the target is T2, JAK2 JH2 (JH2-Peak2) (Homo sapiens, UniProt O60674).
T2 construct: We produced and purified human Jak2 JH2, residues 513-824, as described previously; 6xHis (C, cleaved yes); made in house; host or cells: Sf9 insect cells (baculovirus, pFASTBAC1)
Put plainly: Mant-ATP binding assay (fluorescence) with JH2-Peak2. As for the experimental part:
FIG. 13 provides an analysis of JAK2 JH2 autophosphorylation and ATP binding activity. (a) Time-course kinase assay of purified JH2-Peak1 and JH2-Peak2. (b) Time-course kinase assay of purified JH2 S523A and Y570F mutants compared to JH2-Peak2. (c) Fluorescence measurement of ATP binding assay of JAK2 JH2-Peak2. (d) Kd measurement of mant-ATP binding to JH2-Peak2. Graph, mean±s.d. of three independent experiments.
The fluorescence intensity of mant-ATP (Invitrogen) complex with JH2 was measured using FluoroMax-2 spectrofluorimeter. Mant-ATP (1 μM) was added to a buffer solution (20 mM TRIS-HCl, pH 8, 200 mM NaCl, 10% (v/v) glycerol and 0.5 mM TCEP) along with 5 mM MnCl2 and 1 μM JH2 (from peak 2 fraction). The excitation and emission wavelengths were 280 nm and 440 nm, respectively, and emission was scanned from 400-500 nm. For kd measurements, increased concentration of purified JH2 (0.25 μM-6 μM) was added to buffer solution with 5 mM MnCl2 and 1 μM mant-ATP.
If the pseudokinase domain of JAK2 is an active protein kinase, utilizing ATP as a phosphate donor, it should bind ATP with a physiologic Kd value. The binding of ATP to JH2 of JAK2 was evaluated using the fluorescent ATP-analogue mant [2′-(3′)—O—(N-methylanthraniloy)]-ATP. […] Mant-ATP bound to JH2 with a Kd of ˜1 μM (FIG. 13d), which is ˜10% of the reported Kd for JH1 of JAK2 (Hall, et al., Protein Expr. Purif. 2010; 69: 54-63). […]

Experiment [1] addresses T3, insulin receptor kinase (phosphorylated, active form) (Homo sapiens, UniProt P06213).
T3 construct: the insulin receptor kinase (phosphorylated, active form)
Nature of the experiment: mant-ATP binding to insulin receptor kinase (comparison).

A further experiment concerns the target T4, Jak2 JH2-WT (Homo sapiens, UniProt O60674, F794H/W659A/W777A).
T4 construct: 6xHis (N); made in house; host or cells: baculovirus-infected Sf9 cells
Nature of the experiment: mant-ATP binding (decrease of tryptophan emission by FRET) to JH2-WT. The following applies: fluorescent ATP analog mant-ATP, FIG. 5. As to the method: FIG. 5 depicts ATP binding to JH2-WT. The decrease of the tryptophan emission signal at 340 nm (excitation wavelength at 285 nm) resulting from FRET upon mant-ATP binding to JH2 was measured as a function of mant-ATP concentration. The plotted data points are an average of two experiments.
as §1

T3 sequence (P06213 1023-1298 limits assumed): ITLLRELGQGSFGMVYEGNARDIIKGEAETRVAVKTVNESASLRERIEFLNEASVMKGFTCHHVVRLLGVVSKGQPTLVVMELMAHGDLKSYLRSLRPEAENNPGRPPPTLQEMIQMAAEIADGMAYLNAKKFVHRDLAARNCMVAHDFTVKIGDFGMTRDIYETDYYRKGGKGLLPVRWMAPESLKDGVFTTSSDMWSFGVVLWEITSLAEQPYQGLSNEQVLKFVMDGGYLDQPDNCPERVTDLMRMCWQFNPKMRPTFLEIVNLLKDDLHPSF
T2 sequence (O60674 513-824): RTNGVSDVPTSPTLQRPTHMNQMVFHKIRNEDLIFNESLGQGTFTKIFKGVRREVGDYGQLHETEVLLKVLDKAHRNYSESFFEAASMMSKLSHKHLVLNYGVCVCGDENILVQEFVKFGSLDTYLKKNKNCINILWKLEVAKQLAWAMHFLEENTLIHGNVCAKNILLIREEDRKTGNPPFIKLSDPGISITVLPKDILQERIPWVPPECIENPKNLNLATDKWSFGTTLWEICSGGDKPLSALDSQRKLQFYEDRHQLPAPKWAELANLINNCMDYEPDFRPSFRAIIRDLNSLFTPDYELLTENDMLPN
T1 sequence (O60674 536-812 V617F/W777A/F794H): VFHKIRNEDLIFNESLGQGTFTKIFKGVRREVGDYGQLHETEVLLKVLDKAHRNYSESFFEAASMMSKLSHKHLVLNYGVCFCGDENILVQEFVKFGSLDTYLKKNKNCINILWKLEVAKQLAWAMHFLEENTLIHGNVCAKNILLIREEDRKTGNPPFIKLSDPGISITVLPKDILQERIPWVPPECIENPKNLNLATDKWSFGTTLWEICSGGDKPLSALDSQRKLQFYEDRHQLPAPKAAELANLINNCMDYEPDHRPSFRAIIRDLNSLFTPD
T4 sequence (O60674 536-812 W659A/W777A/F794H): as the sequence (O60674 536-812 V617F/W777A/F794H) above, with F82V, W124A counted along it

As for “mant [2′-(3′)—O—(N-methylanthraniloy)]-ATP [mant-ATP]”, the Kd is 84 nM at Jak2 JH2-VF (V617F); around 1000 nM on JAK2 JH2 (JH2-Peak2) (JH2-Peak2, 5 mM MnCl2, 1 μM mant-ATP, JH2 0.25-6 μM, FIG. 13d); 14000 nM in experiment [1] (insulin receptor kinase, phosphorylated active form, same measurement); 82 nM on Jak2 JH2-WT. Further, the “Kd as percentage of the reported Kd for JH1 of JAK2” value on JAK2 JH2 (JH2-Peak2) (JH2 Kd versus literature Kd for JH1 (Hall et al. 2010)) is around 10%. Moreover, in experiment [1] (insulin receptor kinase Kd versus Jak2 JH2 Kd), the “Kd fold higher than for JH2” value is around 30 fold.
